From US10065927B2, “α-ketoacylic isoniazid compounds, process for producing said compounds, use of the compounds in the treatment of tuberculosis” (priority 2015, dated 2018)
≈ marks a conversion by molar mass, not a printed value. Entries after “also recorded” stand apart in the source; their conditions may differ. Read-outs that look alike come from different tables or passages of the source.

Columns and labels:
[1] = tested on: Mycobacterium tuberculosis strain H37Rv ATCC 27294; experiment: Antimycobacterial evaluation, MIC by microplate Alamar Blue Assay, retested by BACTEC MGIT 960-TB; format: cell-based; details: for MIC: M. tuberculosis strain H37Rv ATCC 27294, sensitive to first-choice drugs; for antimycobacterial activity (in words): against M. tuberculosis
[2] = tested on: J77-4 lineage murine macrophages; format: cell-based; details: mouse
Method: The cytotoxicity evaluation of compound 2 was performed with J77-4 lineage murine macrophages.

[3] = Mycobacterium tuberculosis, read-out: MIC
[4] = strains sensitive to first-choice drugs

O=C(NNC(=O)c1ccncc1)C(=O)c1ccccc1NC(=O)c1ccccc1 [Compound 4, reference compound]
MIC ([1]; read-out: MIC): 8.04 µM (≈ 3.12 µg/mL)
antimycobacterial activity (in words) [1]: did not show good activity

NC(=O)c1cnccn1 [Pyrazinamide, reference compound]
MIC [1, 3]: 813 µM (≈ 100 µg/mL)

CC(=O)NNC(=O)c1ccncc1 [2-acetylisomide, 2-acetylisoniazide, reference compound]
MIC [1]: Inactive
antimycobacterial activity (in words) [1]: did not show antimycobacterial activity

NNC(=O)c1ccncc1 [Isoniazid]
MIC [1, 3]: 0.73 µM (≈ 0.1 µg/mL)

CC(=O)Nc1ccccc1C(=O)C(=O)NNC(=O)c1ccncc1 [Compound 2, N-(2-(2-(2-Isonicotinoylhydrazine)-2-Oxoacetyl)Phenyl) Acetamide]
MIC [1, 3]: 0.37 µM (≈ 0.121 µg/mL)
antimycobacterial activity (in words) [1]: antimycobacterial activity superior to all the first-choice drugs; also recorded: higher potency than all the first-choice drugs
activity relative to pyrazinamide [1, 4]: almost two thousand and two hundred times more active than pyrazinamide
potency relative to ethambutol [1, 4]: more than forty times more potent than ethambutol
potency relative to isoniazid [1, 4]: twice as potent as isoniazid
potency relative to rifampicin [1, 4]: more than three times more potent than rifampicin
Cell Viability (%) ([2]; 1 nM): 96.8%
Cell Viability (%) ([2]; 10 nM): 97.8%
Cell Viability (%) ([2]; 100 nM): 97.9%
Cell Viability (%) [2]; 1: 97.4%
Cell Viability (%) [2]; 10: 97.3%
Cell Viability (%) [2]; 100: 98.2%

CC[C@@H](CO)NCCN[C@@H](CC)CO [Etambutol, ethambutol, reference compound]
MIC [1, 3]: 15.9 µM (≈ 3.25 µg/mL)
